# Key:
# [1] = system: L. amazonensis intracellular amastigotes; test: Leishmanicidal activity against intracellular amastigote forms of L. amazonensis in J774.A1 macrophages; assay type: cell-based
# Experimental: Considering that L. amazonensis is one of the causative species of cutaneous leishmaniasis in Brazil,[20] we have investigated the leishmanicidal effect of compounds 9a–e and 10a–e against L. amazonensis amastigotes forms. Initially, all compounds were evaluated at 30 μM. […] Then, they were selected to determine their IC50 value for intracellular amastigote forms of L. amazonensis.
# Promastigotes of L. amazonensis (MHOM/BR/77/LTB0016) were obtained from Dr Eduardo Caio Torres dos Santos at Oswaldo Cruz Institute – Fiocruz. Promastigotes of L. braziliensis (MHOM/BR/01/BA788) were obtained from Dr Valéria de Matos Borges at Gonçalo Moniz Research Center – Fiocruz. The parasites were maintained in vitro in Schneider's medium, supplemented with 10% FBS and 2% human urine at 27 °C in BOD incubator.
# Initially, compounds 9a–e and 10a–e were evaluated at screening concentration of 30 μM against L. amazonensis, using DMSO 0.03% as vehicle control, since this was the DMSO concentration (vehicle) remaining in each well with the tested compounds. […] Vehicle control used was DMSO 0.1%, since this was the concentration of DMSO (vehicle) existing in each well with the tested substances in the highest concentration used.
# To assess the activity of the test derivatives against the amastigote stage of L. amazonensis and L. braziliensis the model of infection in coverglass was realized.[31] The murine macrophages (J774.A1 cell line) were prepared in 24-well cell culture plate (flat bottom, clear, Corning) at 2 × 10^5 adherent cells per well, infected with 2 × 10^6 promastigotes in glass coverslips placed inside 1 mL medium culture. The cultures were cultured or not with the test derivatives or reference drugs, and kept for 24 h at 37 °C, 5% CO2. After 24 h of incubation, the coverslips were washed, stained with Giemsa–May–Grünwald, and intracellular amastigotes were counted in 100 macrophages, using an optical microscope, on the objective of 100×. Thus, during the counting of 100 macrophages, the amount of amastigotes present within these defence cells was also determined. Data obtained from in vitro experiments were expressed as the mean ± S.E.M. of duplicate cultures of representative assays. Statistical differences between the treated and the control groups were evaluated by ANOVA and Dunnett hoc tests. Differences with a p value < 0.05 or lower were considered significant.
# [2] = system: J774.A1 cell lines (macrophages); test: Cytotoxicity against J774.A1 macrophages, MTT assay; assay type: cell-based, murine (BALB/c); conditions: Mus musculus, J774.A1, 48 h, read-out: IC50 (concentration required to give 50% death of cells)
# Experimental: Initially the cytotoxic profile of compounds 9a–e and 10a–e against J774.A1 cell lines (i.e., BALB/c macrophage cell lines) was investigated. Therefore, these cells were exposed to different concentrations (0.1–100 μM) of compounds 9a–e and 10a–e and the cytotoxic effect was measured after 48 h of drug incubation, by using MTT-based assay. The cytotoxicity was expressed as IC50 values (that means the concentration of a drug that kills half of the tested cells in culture). As depicted in Table 1, most compounds have shown low cytotoxic activity with IC50 > 100 μM.
# These adherent-phenotype macrophage lines were cultured in Dulbecco's Modified Eagle's medium (DMEM, Sigma) supplemented with 10% FBS at 37 °C with 95% humidity and 5% CO2.
# To evaluate the cytotoxic activity against the J774.A1 cell line, the host cells were plated in 96-well cell culture plate (flat bottom, clear, Corning) at 2 × 10^5 cells per well in complete culture medium 10% FBS at 37 °C. After 1 h wells were washed with warm Hank's Balanced Salt solution (HBSS) to remove non-adherent cells, leaving approximately 10^5 adherent macrophages. All cultures were done in DMEM complete supplemented with 10% FBS. The compounds and pentamidine were added at serial concentrations (0.1–100 μM). The cells were also cultured with medium free from compounds or vehicle (basal growth control) or in media with DMSO 0.1% (vehicle control). Positive control (dead cells) was obtained by cellular lysis with 1% of Triton 100× in DMEM complete (because it is a detergent in this concentration, Triton 100× destabilizes the cell membrane of macrophages, causing cell death). The cytotoxicity was evaluated by the MTT assay.[31] This assay consists of indirectly measuring cell viability through the mitochondrial enzymatic activity of macrophages. Viable cells are capable of reducing MTT to formazan. For this, after the incubation of plate for 48 h, 100 μL of MTT solution (0.5 mg mL^−1, in DMEM medium) was added per well, and the plate was incubated for 1 h. Then, the supernatant of each well was retired and was added 150 μL of DMSO. The absorbance was determined at 570 nm in a microplate reader. The cell viability of the cultures treated with the compounds was compared to the death pattern obtained in the control cultures. In the positive control, the cell death was confirmed when the optical density was equal to zero, confirming that the cells were not viable. Data obtained from experiments were expressed as the mean ± standard error of the mean (mean ± S.E.M.) and statistical differences between the treated and the vehicle groups of experiments were evaluated by ANOVA and Dunnett hoc tests.
# [3] = L. amazonensis amastigotes, ratio of IC50 values
smiles,measurement,setting,value
"O=C(N/N=C/c1ccc(C(F)(F)F)cc1)NNC(=O)c1ccc(Cl)cc1Cl [LASSBio-1736 (10e), 2,4-dichloro-phenylcarbamoyl-N-4-trifluoromethylphenylimine-urea]",Times less potent than miltefosine,[1]; [3],~4.0 times
same,Times less potent than pentamidine,[1]; [3],about 2.5 times
same,Effect on the number of intracellular amastigotes,"[1]; L. amazonensis, screening concentration 30 μM",decreased the number of intracellular amastigotes
same,IC50,"[1]; Leishmania amazonensis, J774.A1, 24 h, read-out: IC50 (concentration required to give 50% death of parasites)",84 ± 0.3 µM
same,Emax,"[1]; Leishmania amazonensis, J774.A1, L. amazonensis intracellular amastigotes, maximum toxicity vs 0.1% DMSO group, read-out: Maximum effect (% ± S.E.M.)",57.6 ± 0.2%
same,IC50,[2],> 100 µM
